Test results reported in patent publication US9738610B2, “Indazole derivatives and uses thereof” (Whitehead Institute for Biomedical Research, priority 2012, dated 2017).
Where two headings read alike, the source gives them in different places.

What was measured:
C. albicans CaCi-8 = assay: microbe, parasite or virus in culture; type: cell-based, Candida albicans
Experimental: This subset was re-subjected to the primary assay and was also tested concurrently in two secondary assays. Secondary assay 1 measured chemosensitization of the more resistant CaCi-8 strain. Secondary assay 2 eliminated anything with inherently antifungal activity. […] A final assay (secondary assay 3) was incorporated to discard any compound displaying toxicity to mammalian fibroblasts. […] This screening campaign is also illustrated in FIG. 3B.
Those that inhibited growth in the resistant strain were also tested for toxicity against Candida in the absence of fluconazole and for toxicity against mammalian cells using a fluorescence reporter assay. The positive control for screening in the Candida and mammalian cell assays was the Hsp90 inhibitor geldanamycin (acting in concert with fluconazole; FIG. 4). Compounds that passed these four hurdles were binned through use of a Saccharomyces assay to determine whether the mechanism of action might be through the Hsp90 pathway, the calcineurin pathway, or an uncategorized mechanism.

C. albicans CaCi-2 [1] = assay: CaCi-2 growth inhibition in the presence of 8 μg/ml fluconazole (Alamar Blue); type: cell-based, Candida albicans
Experimental: Fluconazole was obtained from Sequoia Research Products, Ltd. and prepared in a 2 mg/ml stock solution in phosphate buffered saline (PBS). […] PBS (Catalog No. 21-040-CV) without calcium and magnesium was obtained from Cellgro. Penicillin/Streptomycin (Pen/Strep) was obtained from Gibco and prepared 100× in PBS.
RPMI medium (1×) was prepared by dissolving 10.4 g powdered medium in 800 ml water. A buffer of 34.52 g MOPS was added. While stirring, pH was adjusted to 7.0 with 10 N NaOH. Next, 10 ml uridine solution and 50 ml glucose solution were added. The final volume was adjusted to 1000 ml, and filter sterilized.
The following yeast strains were used in this study: C. albicans CaCi-2. Fungal inoculum was prepared as follows: 500 μl of strain was inoculated from cryopreserved stock into a 250-ml shaker flask containing 30 ml growth medium and shaken overnight at 30° C. The optical density (OD 600) of 1 ml fungal culture in a cuvette was read using a standard optical density reader (Eppendorf BioPhotometer Plus), with growth medium as a background blank. The desired volume of fungal inoculums was diluted to desired volume of fungal inoculums according to the following formula: (1/OD measured)×(Desired Final Volume of Inoculum)×0.3=Volume of fungal culture (μl) to add to desired volume of growth medium. When added to media in wells, this yields a calculated starting OD of the fungal inoculum of 0.00015.
Fluconazole stock solution was added to the fungal inoculum to achieve 8 μg/ml. Pen/Strep was added to the media to a 1% concentration (v/v). A Thermo Combi nL was used to dispense 20 μl/well of assay media into all wells. Geldanamycin was dispensed in positive control wells using Thermo Combi nL for a final concentration of 3 μM. Then, 100 nl of test compound was pinned from compound plates into assay plates using a CyBi-Well pin tool. A further 20 μl/well of culture was dispensed into the assay media in all wells. The plates were incubated in a humidified (90% humidity) Liconic incubator at 37° C. without agitation for 48 hours. Alamar Blue was diluted 1:40 in Ca/Mg-free PBS. To all plates, […] of the diluted Alamar Blue was added to the plates to a final dilution factor of 1:200. The plates were incubated for an additional 2 hours. Then, Relative Fluorescence Intensity (RFU) of each well was read on standard plate reader as a measure of relative fungal growth.

Plasma protein binding = conditions: % bound in human plasma
Plasma stability = conditions: % remaining in human plasma after a 5-hour incubation
C. albicans CaCi-2 [2] = assay: Secondary single-agent (no-fluconazole) activity assay; type: cell-based, Candida albicans; conditions: in the absence of fluconazole; read-out: Target Potency (μM) Mean ± S.E.M CaCi-2^b IC50
Experimental: Clear, flat-bottom, black, 384-well plates were obtained from Corning. […] Pen/Strep was obtained from Gibco and prepared 100× in PBS. Fluconazole was obtained from Sigma and prepared in 2 mg/ml stock solution in PBS. Alamar Blue was obtained from Biosource International (Catalog No. DAL1100). Phosphate buffered solution (PBS) without calcium and magnesium was obtained from Cellgro.
Fungal inoculum was prepared as follows: 500 μl of yeast was inoculated from cryopreserved stock into a 250-ml shaker flask containing 30 ml growth medium and shaken overnight (16 hours) at 30° C. The culture was spun down, and the broth was poured off and washed with RPMI medium. The culture was spun down again, and the broth was poured off and resuspended in RPMI medium. The OD 600 of 1 ml of fungal culture in a cuvette was read using a standard optical density reader with growth medium as a background blank. The desired volume of fungal inoculum was diluted to starting OD of the fungal inoculum of 0.00015 A600.
Pen/Strep was added to the media to a final 1% concentration. A Combi NL (Thermo) was used to dispense 20 μl/well of assay media into all wells. Geldanamycin (1.5 mM) and fluconazole (0.2 mg/ml) were mixed for the positive control. Then, 80 nl of positive control solution was dispensed into the positive control wells using Thermo Combi nL for a final concentration of 3 μM geldanamycin and 8 μg/ml fluconazole. Then, 100 nl of test compound were pinned from the compound plates into assay plates using a CyBi-Well pin tool. A further 20 μl/well of RPMI synthetic defined medium culture was dispensed into 384-well, black plates. Fungal suspension (20 μl/well) was dispensed into all wells. The plates were incubated in a humidified (90% humidity) Liconic incubator at 37° C. without agitation for 48 hours. Alamar Blue Reagent was diluted 1:40 in Ca/Mg-free PBS. To all plates, 6.4 μl/well of the diluted Alamar Blue was added to the plates to a final dilution factor of 1:200. The plates were incubated for 2 hours at room temperature. Next, RFU of wells was read on a standard plate reader as a measure of relative fungal growth.

[3] = 37° C., 48 hours, with 8 μg/mL (26 μM) fluconazole, average of at least three experiments
[4] = 37° C., 48 hours, with 8 μg/mL (26 μM) fluconazole, average of at least three experiments, read-out: CaCi-8 IC50
[5] = 37° C., 48 hours, with 8 μg/mL (26 μM) fluconazole, average of at least three experiments, read-out: CaCi-2 IC50
[6] = Table 12, read-out: CaCi-8 IC50 with 8 μg/ml fluconazole
[7] = in the presence of fluconazole, read-out: Target Potency (μM) Mean ± S.E.M CaCi-8^a IC50

| Structure (SMILES) | CaCi-8 IC50 (μM) (C. albicans CaCi-8; [3]) | IC50 (C. albicans CaCi-8; [7]) | Plasma Protein Binding (Plasma protein binding) | Plasma Stability (Plasma stability) | IC50 (C. albicans CaCi-2 [2]) | other results |
| --- | --- | --- | --- | --- | --- | --- |
| COC(=O)Cn1nc(-c2ccccc2)c2cccnc21 | inactive |  |  |  |  | CaCi-2 IC50 (μM) (C. albicans CaCi-2 [1]; [3]): inactive |
| COC(=O)Cn1nc(C(C)(C)C)c2ccccc21 | inactive |  |  |  |  | CaCi-2 IC50 (μM) (C. albicans CaCi-2 [1]; [3]): inactive |
| COC(=O)Cn1nc(C2CC2)c2ccccc21 | Inactive |  |  |  |  | CaCi-2 IC50 (μM) (C. albicans CaCi-2 [1]; [3]): inactive |
| COC(=O)Cn1nc(C2CCCCC2)c2ccccc21 |  |  |  |  |  | IC50 (C. albicans CaCi-8; [4]): 6 ± 1.7 µM; IC50 (C. albicans CaCi-2 [1]; [5]): 2.3 ± 0.3 µM |
| COC(=O)Cn1nc(-c2cnco2)c2ccccc21 | inactive |  |  |  |  | CaCi-2 IC50 (μM) (C. albicans CaCi-2 [1]; [3]): inactive |
| COC(=O)Cn1nc(-c2cscn2)c2ccccc21 | inactive |  |  |  |  | IC50 (C. albicans CaCi-2 [1]; [5]): 12.9 ± 1.7 µM |
| COC(=O)Cn1nc(-c2cccc(C)c2)c2ccccc21 [CID 49835823] |  |  |  |  |  | IC50 (C. albicans CaCi-8; [6]): 1.3 µM; IC50 (C. albicans CaCi-2 [1]; in the presence of fluconazole, read-out: CaCi-2 growth inhibition IC50): 0.65 µM |
| COC(=O)Cn1nc(-c2cccc(F)c2)c2ccccc21 [CID 49835858] |  |  |  |  |  | IC50 (C. albicans CaCi-8; [6]): 2.1 µM; IC50 (C. albicans CaCi-2 [1]; Table 12, read-out: CaCi-2 IC50 with 8 μg/ml fluconazole): 1.4 µM |
| COC(=O)Cn1nc(-c2ccccc2)c2cc(F)ccc21 [Compound 5-F] | inactive |  |  |  |  | IC50 (C. albicans CaCi-2 [1]; [5]): 11.2 ± 7.2 µM |
| COC(=O)Cn1nc(-c2ccccc2)c2cc(C)ccc21 [Compound 5-Me] |  |  |  |  |  | IC50 (C. albicans CaCi-8; [4]): 8.2 ± 3.2 µM; IC50 (C. albicans CaCi-2 [1]; [5]): 5.2 ± 2.2 µM |
| COC(=O)Cn1nc(-c2ccccc2)c2cc(OC)ccc21 [Compound 5-OMe] |  |  |  |  |  | IC50 (C. albicans CaCi-8; [4]): 22.1 ± 6.2 µM; IC50 (C. albicans CaCi-2 [1]; [5]): 14.9 ± 5.7 µM |
| COC(=O)Cn1nc(-c2ccccc2)c2ccc(C(F)(F)F)cc21 [Compound 6-CF3] | inactive |  |  |  |  | CaCi-2 IC50 (μM) (C. albicans CaCi-2 [1]; [3]): inactive |
| COC(=O)Cn1nc(-c2ccccc2)c2ccc(C#N)cc21 [Compound 6-CN] | inactive |  |  |  |  | CaCi-2 IC50 (μM) (C. albicans CaCi-2 [1]; [3]): inactive |
| COC(=O)Cn1nc(-c2ccccc2)c2ccc(Cl)cc21 [Compound 6-Cl] |  |  |  |  |  | IC50 (C. albicans CaCi-8; [4]): 8.4 ± 0.5 µM; IC50 (C. albicans CaCi-2 [1]; [5]): 4 ± 1.3 µM |
| COC(=O)Cn1nc(-c2ccccc2)c2ccc(C)cc21 [Compound 6-Me] | inactive |  |  |  |  | IC50 (C. albicans CaCi-2 [1]; [5]): 5.9 ± 3.1 µM |
| COC(=O)Cn1nc(-c2ccccc2)c2ccc(OC)cc21 [Compound 6-OMe] |  |  |  |  |  | IC50 (C. albicans CaCi-8; [4]): 12.4 ± 0.5 µM; IC50 (C. albicans CaCi-2 [1]; [5]): 9.5 ± 2.5 µM |
| COC(=O)Cn1nc(-c2ccc(C)cc2)c2ccccc21 [Compound 46856255] |  | 11 µM | 96% | 4.1% | > 26 µM |  |
| COC(=O)Cn1nc(-c2ccccc2)c2ccc(OC)cc21 [Compound 49835812] |  | 12.7 µM | 38% | 1.3% | > 26 µM |  |
| CC(C)OC(=O)Cn1nc(-c2ccccc2)c2ccccc21 [Compound 49835820] |  | > 26 µM | 99% | 53% | > 26 µM |  |
| COCCn1nc(-c2ccccc2)c2ccccc21 [Compound 49835825] |  | > 26 µM | > 99% | 70% | > 26 µM |  |
| c1ccc(-c2nn(Cc3ncco3)c3ccccc23)cc1 [Compound 49835836] |  | 34.2 ± 7.9 µM | > 99% | 97% | > 26 µM |  |
| COC(=O)Cn1nc(-c2ccccc2)c2cc(OC)ccc21 [Compound 49835837] |  | 18.5 µM | PBS Solubility: <1.0 μM Plasma Protein Binding: <1.0% Plasma Stability: <1.0% Purity (UPLC): >99% | PBS Solubility: <1.0 μM Plasma Protein Binding: <1.0% Plasma Stability: <1.0% Purity (UPLC): >99% | > 26 µM |  |
| CC(C)(C)OC(=O)Cn1nc(-c2ccccc2)c2ccccc21 [Compound 49835839] |  | > 26 µM | > 99% | 85% | > 26 µM |  |
| CCCCn1nc(-c2ccccc2)c2ccccc21 [Compound 49835848] |  | > 26 µM | > 99% | 81% | > 26 µM |  |
| COC(=O)Cn1nc(-c2ccccc2)c2ccc(C(F)(F)F)cc21 [Compound 49835849] |  | 32.1 µM | 62% | 1.7% | > 26 µM |  |
| COC(=O)Cn1nc(-c2ccc(C#N)cc2)c2ccccc21 [Compound 49835863] |  | 20 µM | 92% | < 1.0% | > 26 µM |  |
| O=C(Cn1nc(-c2ccccc2)c2ccccc21)OC1CCC1 [Compound 49835870] |  | > 26 µM | > 99% | 2.0% | > 26 µM |  |
| COC(=O)C(C)(C)n1nc(-c2ccccc2)c2ccccc21 [Compound 49835873] |  | > 26 µM | > 99% | 63% | > 26 µM |  |
| COC(=O)Cn1nc(-c2ccccc2)c2ccccc21 [Compound I-16, methyl 3-phenyl-1H-indazole acetate] |  |  |  |  |  | IC50 (C. albicans CaCi-2 [1]; Candida albicans, CACI2, Table 12, read-out: CaCi-2 IC50 with 8 μg/ml fluconazole): 1.8 µM |
